Measured values: patent publication US20140343159A1, “FORMULATION OF SMALL ADRENERGIC AGONIST SALT FORMS IN ORGANIC SOLVENTS” (PROCERTUS BIOPHARM, INC., priority 2011, published 2014)

Experiments:
[1] = type: physicochemical
Procedure: Known weights of (−) norepinephrine-tartrate dry powder were added to individual, 2.0 ml clear glass vials. An appropriate volume of ethanol and water at a ratio of 70:30 by volume solvent was then added to achieve the indicated concentrations. Sealed vials were vortexed for five seconds and then left at room temperature for 24 hr in the dark before examination to determine turbidity of liquid due to undissolved material.
Known weights of (−) norepinephrine-tartrate or (+/−) norepinephrine-HCl dry powders were added to individual, 2.0 ml, clear glass vials. An appropriate volume of ethanol to water (70:30) solvent was then added to achieve the indicated concentrations. Sealed vials were vortexed for five seconds and then left at room temperature for 24 hr in the dark before examination to determine turbidity of liquid due to undissolved material. Table 2, below, provides the solubility of (+/−) norepinephrine-HCl and (−) norepinephrine-tartrate in topical delivery vehicle of ethanol and water (70:30).
Known weights of the indicated norepinephrine salts were added to individual, 2.0 ml, clear glass vials. An appropriate volume of 70:30 (ethanol:water) solvent was then added to achieve the indicated concentrations. Sealed vials were vortexed for five seconds and then left at room temperature for 24 hr before examination to determine turbidity of liquid due to undissolved material.

human skin = test: Skin blanch response in human skin following topical application; type: in vivo; details: 600 mM solution in 70:30 ethanol:water compared with supersaturated 300 mM (−) norepinephrine-tartrate
Procedure: Appropriate weights of each dry norepinephrine salt were weighed into clear glass vials, and appropriate volumes of ethanol and water at a ratio of 70:30, by volume, were added to achieve the indicated norepinephrine concentrations. The (+/−) norepinephrine-HCl dissolved to clarity with 5 second mixing at room temperature, and the (−) norepinephrine-tartrate required heating to 60° C. for 5 minutes and then mixing to clarify. 25 μL aliquots of each formulation were applied using a pipettor over multiple 2×2 cm patches of skin on volunteer's arm over a 20 second period. Images to record skin blanch onset, degree and duration were begun at 2 minute post-application. % Skin Blanch scores were assigned by visual evaluation. 100% Skin Blanch equaled the skin blanch seen after pressing firmly on the skin and quickly releasing.
Equal concentrations (300 mM) of the (−) norepinephrine enantiomer, either alone as the tartrate salt or in the presence of an equal amount of the (+) enantiomer HCl salt, were applied to human skin in the ethanol:water (70:30) delivery vehicle, and the pharmacologic efficacy of the (−) norepinephrine was scored based upon its ability to induce a skin blanch response by binding to al adrenergic receptors in the smooth muscle cells of the subcutaneous dermal blood vessels. […]

radiation-treated rats [2] = test: Radiodermatitis in radiation-treated rats after topical vasoconstrictor; type: in vivo, rat; details: two rats, 600 mM in ethanol:water (70:30) delivery vehicle applied prior to irradiation (FIG. 1)
From the text: In the model, a topical vasoconstrictor was applied to a shaved area on the backs of rats prior to irradiation with a Cs^137 source. The severity of radiodermatitis was scored on day 13. Vasoconstriction at the topical treatment site was evidenced by the transient occurrence of a visible skin blanch that correlates with therapeutic efficacy in the rat radiodermatitis model. This skin blanch may serve as a surrogate efficacy marker for clinical studies. The general strategy of using topical vasoconstrictors to prevent these cancer therapy side effects is addressed in U.S. Pub. No 2007/0077219, which is incorporated by reference in its entirety herein.

[3] = Stability of (−) norepinephrine-HCl dissolved in water at 1000 mM; type: physicochemical; details: 4° C. and 24° C., weeks/months following formulation
Procedure: (−) norepinephrine-HCl dissolved in water at 1000 mM is stable at 4° C. and 24° C. as determined by the absence of precipitate or colored oxidation products in the weeks/months following initial formulation. Previous formulations of norepinephrine-tartrate in saline (e.g., Levophed®, Hospira, Inc., Lake Forest, Ill.) have norepinephrine concentrations of 1-5 mM.
(−) norepinephrine-HCl was weighed into a glass vial. An appropriate volume of N2-purged water ([…] with vigorous N2 bubbling and stir bar) was delivered to the vial. The vial headspace was flushed with N2 gas and the vial was sealed. The vial was vortexed for 5 seconds to produce a clear solution. A weighed amount of dry citric acid solid was added to the (−) norepinephrine-HCl solution, the vial headspace was flushed with N2 and the vial was sealed. The vial was vortexed until the solution was clear. 200 μl aliquots of (−) norepinephrine-HCl+citric acid solution were added to 2.0 ml, clear, glass vials (previously rinsed with ethanol and dried). The vial headspaces were optionally flushed with N2 gas and the vials were sealed. 3.0 ml of (−) norepinephrine-HCl+citric acid solution was transferred to a glass vial, an appropriate dry weight of sodium EDTA was added to the vial, the vial headspace was flushed with N2 gas, the vial was sealed and the vial was vortexed until clear. […]

radiation-treated rats [4] = details: topical, applied prior to irradiation of rat skin; cited from earlier work
β2 adrenergic receptor = β2 adrenergic receptor (Homo sapiens, UniProt P07550); details: cited from earlier work
[5] = super-saturated solutions for topical application; cited from earlier work

Sequence of β2 adrenergic receptor (P07550 whole entry, species assumed): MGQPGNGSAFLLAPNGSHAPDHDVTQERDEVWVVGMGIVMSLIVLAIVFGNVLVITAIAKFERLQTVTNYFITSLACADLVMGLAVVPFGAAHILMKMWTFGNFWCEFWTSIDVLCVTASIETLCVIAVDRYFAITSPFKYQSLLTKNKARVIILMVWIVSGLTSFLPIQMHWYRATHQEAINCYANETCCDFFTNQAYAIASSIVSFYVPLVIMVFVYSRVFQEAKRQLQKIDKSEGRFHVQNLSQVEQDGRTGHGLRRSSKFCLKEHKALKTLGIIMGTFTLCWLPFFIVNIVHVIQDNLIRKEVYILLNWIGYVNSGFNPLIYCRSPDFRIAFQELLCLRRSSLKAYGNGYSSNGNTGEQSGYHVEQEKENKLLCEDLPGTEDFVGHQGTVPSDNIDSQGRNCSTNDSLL

## Cl.NCC(O)c1ccc(O)c(O)c1 (racemic) [(+/−) norepinephrine-HCl]
[1]
  maximum solubility: at least 2000 mM
  solubility relative to (−) norepinephrine-tartrate: at least 10 fold
Human skin
  vasoconstrictor activity in inducing a skin blanch response: at least the same activity

## Cl.NC[C@H](O)c1ccc(O)c(O)c1 [(−) norepinephrine-HCl]
radiation-treated rats [2]
  occurrence of radiodermatitis: absence of radiodermatitis
[1]
  maximum solubility: at least 2000 mM
[3]
  stability by absence of precipitate or colored oxidation products: stable

## CNC[C@H](O)c1ccc(O)c(O)c1 [epinephrine]
radiation-treated rats [4]
  protection against development of radiation dermatitis: complete protection

## NC[C@H](O)c1ccc(O)c(O)c1 [norepinephrine]
β2 adrenergic receptor
  binding to the β2 adrenergic receptor: does not bind
radiation-treated rats [4]
  protection against development of radiation dermatitis: the same protection

## (−) norepinephrine-tartrate
[1]
  maximum solubility: 200 mM
  solubility limit: about 200 mM
[5]
  stability of super-saturated solution: stable for only a few hours
